Measured values published in PubChem BioAssay AID1159564 (GlaxoSmithKline (GSK), 2015).
The source made the active and inactive calls. How the calls were made is not given here.

System: L. donovani-infected THP-1 macrophages, intracellular amastigote imaging
Experiment: antileishmanial activity in infected THP-1 macrophages – imaging, THP-1 host macrophages, host toxicity (AID 1159564)
[1] = measured here: THP-1 host cell toxicity
[2] = measured here: amastigotes per macrophage

SMILES	IC50	IC50 [1] [µM]	IC50 [2] [µM]
Oc1c(-c2n[nH]c(Cc3ccc(F)cc3)n2)ncc2cccnc12	1 µM	20	1
COc1ccccc1CNc1cc(C2CC2)nc(-c2nccn2C)n1	0.5 µM	16	0.4
Cc1nc(N2CC(C)OC(C)C2)sc1C(=O)Nc1ccc2c(c1)OCO2 (configuration not stated)	7.9 µM	> 50	3.2
COc1ccc(-c2cc(C)no2)cc1S(=O)(=O)Nc1ccc(F)c(Cl)c1	25 µM	32	20
COc1cccc(C(=O)[C@H]2C[C@@H]2CN(Cc2ccccn2)Cc2ccccn2)c1	2 µM	> 50	1.6
CCCc1cc(N)nc(-c2cc(CCC)cc(N)n2)c1	2.5 µM	20	1.6
COc1ccc2ncc(=O)n(CCN3CCOC(CNCc4ccc(C(F)(F)F)cc4F)C3)c2n1 (configuration not stated)	> 50 µM (inactive)	> 50	> 50
CCn1c(-c2nonc2N)nc2c([C@@H](C)O)ncc(O[C@H](CN)c3ccccc3)c21	5 µM	3.2	3.2
CCN(CC)S(=O)(=O)c1ccc(C)c(NC(=O)c2cc(Cl)c3c(c2)OCO3)c1	> 50 µM (inactive)	> 50	> 50
O=C(CCCNC(=O)c1ccc(Cl)cc1)Nc1nc(-c2ccccn2)cs1	5 µM	> 50	3.2
COc1cccc(S(=O)(=O)Nc2ccc3c(c2)CC(N2CCC(NC(=O)C4CC4)CC2)C3)c1 (configuration not stated)	> 50 µM (inactive)	> 50	25
Cc1cc(N2CCc3ccccc3C2)nc(Nc2ccc(S(=O)(=O)N3CCOCC3)cc2)n1	5 µM	25	1.6
O=C(CN(Cc1ccccn1)Cc1ccccn1)NCc1csc(-c2cccs2)n1	6.3 µM	> 50	3.2
Nc1nc(-c2ccccn2)nc(-n2nc(-c3cccc(C(F)(F)F)c3)cc2N)n1	0.79 µM	5	0.5
O=C(Cn1cnc2cc([N+](=O)[O-])ccc2c1=O)NCCc1ccc(Cl)cc1Cl	> 50 µM (inactive)	> 50	> 50
CCCCN(C(=O)c1ccc(NC(=O)C(C)C)cc1)c1ccccc1	5 µM	> 50	3.2
COc1ccc2nccc([C@H](O)CN3CC[C@H](NC(=O)c4ccc(Br)cc4)[C@@H](O)C3)c2n1	> 50 µM (inactive)	> 50	> 50
CCCn1c(NC(=O)Cc2ccc(Cl)cc2)nc2ccccc21	5 µM	> 50	3.2
Cc1[nH]n2c(=O)c3c(nc2c1-c1ccc(Cl)cc1)CCCC3	> 50 µM (inactive)	13	> 50
COc1ccc(C(=O)[C@H]2C[C@@H]2CN(Cc2ccccn2)Cc2ccccn2)cc1	1.6 µM	> 50	1.3
Cc1cc(C)cc(NS(=O)(=O)c2cc(-c3cc(C)[nH]n3)ccc2C)c1	7.9 µM	–	3.2
Cc1cn[nH]c1C1CCCN(Cc2nc3ccccc3n2C)C1 (configuration not stated)	4 µM	20	3.2
Nc1nonc1-c1nc2cncc(C(=O)N3CC[C@H](N)C3)c2n1CC1CC1	20 µM	13	40

SMILES	IC50	IC50 [1] [µM]	IC50 [2] [µM]
O=C(Nc1ccc(S(=O)(=O)N2CCCC2)cc1)c1ccc([N+](=O)[O-])s1	1.6 µM	> 50	1
O=C(CN1CCN(S(=O)(=O)c2cccc([N+](=O)[O-])c2)CC1)Nc1ccc(Oc2ccccc2)cc1	7.9 µM	> 50	2
CCN(CC)c1nc(N(C)C)nc2c1CN(Cc1ccccc1)CC2	6.3 µM	40	4
O=c1cc(NCCCNC2CCOc3c(I)cc(Cl)cc32)[nH]c2ccccc12 (configuration not stated)	20 µM	20	13
Cc1ccc(NC(=O)c2ccc([N+](=O)[O-])s2)cc1S(=O)(=O)N1CCOCC1	3.2 µM	40	2
Cc1nc2c(-c3nc(-c4ccc(N)cc4)n[nH]3)cccn2c1C	2 µM	13	1.6
CC(=O)Nc1ccc(-c2noc(CC3CCCN(Cc4cccc(F)c4C)C3)n2)cc1 (configuration not stated)	32 µM	> 50	13
CNC(=O)C1Cc2ccccc2N1C(=O)Cc1ccccc1 (configuration not stated)	> 50 µM (inactive)	> 50	> 50
CCCCCNC(=O)c1c[nH]c2ccc(S(=O)(=O)N(C)c3ccc(OCC)cc3)cc2c1=O	> 50 µM (inactive)	> 50	> 50
O=C(Nc1ccccc1)Nc1nc(-c2ccccn2)cs1	0.4 µM	6.3	0.25
CN(C(=O)Nc1ccc2c(c1)CCN(C1CCC1)CC2)c1ccc(C#N)cc1	> 50 µM (inactive)	> 50	> 50
COCc1cnc2c(c1SCc1c(F)cccc1Cl)c(=O)n(C)c(=O)n2C	5 µM	> 50	5
C=CCN(Cc1cccs1)C(=O)CSc1nnc(-c2ccc3c(c2)OCO3)o1	3.2 µM	> 50	1.3
CN1C(=O)c2ccccc2Sc2ccc(NC(=O)NCc3ccco3)cc21	> 50 µM (inactive)	> 50	25
O=C(Cc1ccccc1)Nc1[nH]nc2sc(C(=O)NC3CCCC3)cc12	3.2 µM	1.6	1.6
COc1cc(Nc2nccc(Nc3onc(C)c3C)n2)cc(S(=O)(=O)C2CCOCC2)c1	> 50 µM (inactive)	40	5
CCCNC(=O)Nc1cccc(-c2nc3ncccc3o2)c1	13 µM	20	16
COc1cccc(-c2c(C)nn(-c3nc(N)nc(-c4ccccn4)n3)c2N)c1	2 µM	> 50	1.6
c1ccc(-c2nc(NC3CCCCC3)cc(C3CC3)n2)nc1	4 µM	20	3.2
N#Cc1cccc(CNc2ccc(-c3cnn(CC4CC4)c(=O)c3C#N)cc2)c1	1.3 µM	6.3	0.25
CCc1cccc(CC)c1-n1c(SCC(=O)N2CC(=O)Nc3ccccc32)nnc1-c1cccnc1	> 50 µM (inactive)	> 50	> 50
OC1CCC(Nc2nccc(-c3sc(C4CCOCC4)nc3-c3ccc(F)c(F)c3)n2)CC1 (configuration not stated)	5 µM	20	2.5
Cc1ccccc1NS(=O)(=O)c1ccc2[nH]cc(C(=O)NC3CCCC3)c(=O)c2c1	> 50 µM (inactive)	32	40

SMILES	IC50	IC50 [1] [µM]	IC50 [2] [µM]
COc1ccc(Nc2nc(-c3ccccn3)cc(N3CCCC(O)C3)n2)cc1 (configuration not stated)	1 µM	25	0.79
COc1ccc(S(=O)(=O)Nc2ccc(CN3CCN(C(=O)c4cccc(C#N)c4)CC3)cc2)cc1	> 50 µM (inactive)	> 50	> 50
O=C(Nc1cccc(F)c1)N1CCC(Oc2cccc(-c3cccnc3)c2)CC1	> 50 µM (inactive)	20	0.79
CNc1cncc(C2CCCN2C(=O)Cc2ccc3ccccc3c2)n1 (configuration not stated)	> 50 µM (inactive)	> 50	> 50
CCOc1ccc(Nc2ccc(S(=O)(=O)N3CCN(C)CC3)cc2[N+](=O)[O-])cc1OCC	7.9 µM	13	5
CC(C)(C)c1csc(NC(=O)c2ccc([N+](=O)[O-])s2)n1	3.2 µM	> 50	2.5
CC(C)(C)C(=O)Nc1cc(C2CC2)nn1-c1nc2c(c(=O)[nH]1)CCCC2	5 µM	7.9	2
O=S(=O)(NCC(c1cccnc1)N1CCN(c2ccccc2F)CC1)c1ccc(F)cc1 (configuration not stated)	> 50 µM (inactive)	> 50	4
CC(C)c1nn(-c2nc(N)nc(-c3ccccn3)n2)c(N)c1C1CCCCC1	1 µM	5	0.79
CCOc1ccc(NC(=O)C=Cc2ccc(CC)o2)cc1	50 µM	20	25
O=c1ccc2ccc(F)c3c2n1C[C@H]3CN1CCN(CC(O)c2cc3c(cn2)OCS3)CC1 (some centres not stated)	> 50 µM (inactive)	> 50	> 50
Cc1c(CNC(=O)c2ccc(Cn3cc(Cl)c([N+](=O)[O-])n3)cc2)cnn1C	> 50 µM (inactive)	> 50	> 50
Cn1nc([N+](=O)[O-])nc1N1CCCCC1	> 50 µM (inactive)	> 50	> 50
O=C(Nc1cccc(S(=O)(=O)Nc2ccc(Br)cc2)c1)c1ccc([N+](=O)[O-])s1	1 µM	10	0.79
CN(C)S(=O)(=O)c1cccc(C(=O)Nc2nc(-c3ccccn3)cs2)c1	6.3 µM	7.9	2.5
O=c1oc2ccccc2n1C1CCN(Cc2ccccc2-c2cccnc2)CC1	> 50 µM (inactive)	13	6.3
NS(=O)(=O)c1ccc(CNC(=O)c2ccc([N+](=O)[O-])s2)cc1	25 µM	40	13
O=C(NC(CO)c1ccc(F)cc1)c1ccc(-c2c[nH]c3ncccc23)s1 (configuration not stated)	25 µM	10	20
CCN(C)Cc1ccc(N2CCC(NS(=O)(=O)c3ccc4c(c3)CCO4)CC2)nc1	> 50 µM (inactive)	> 50	–
NS(=O)(=O)c1ccc(Nc2ncc3cccc(OC4CCNCC4)c3n2)cc1	20 µM	1	16
Cc1nc2nc(C)c(Cc3ccc(C(C)C)cc3)c(=O)n2[nH]1	32 µM	> 50	16
O=C(CSc1nnc2ccc(-c3ccc(F)cc3)nn12)N1CCCCC1	> 50 µM (inactive)	6.3	> 50
